Experimental data published in patent US10829520B2, “Beta-hairpin peptidomimetics” (POLYPHOR AG, priority 2015, dated 2020).
Where a SMILES comes first, the peptide text is derived from it. Bridges are numbered along the chain shown (N, C = ends). Roman numbers before positions name the chains, in order. [ ]: non-standard residue; d: D form. Tle = CC(C)(C)[C@H](N)C(=O)O; dDab = NCC[C@@H](N)C(=O)O; Nle = CCCC[C@H](N)C(=O)O; Orn = NCCC[C@H](N)C(=O)O; Dab = NCC[C@H](N)C(=O)O

Experiments:
Format in all cases: cell-based
[1] = tested on: human red blood cells (hRBC); test: Hemolysis of human red blood cells; conditions: red cells of human, 1 h
Procedure, shortened: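 Percent lysis of washed human erythrocytes after 1 h at 37° C. with 100 μg/mL peptide, calculated from OD540 of 8-fold diluted supernatant as a fraction of the 2.5% Triton X-100 value.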

[2] = tested on: Pseudomonas aeruginosa ATCC 27853; conditions: ATCC 27853
Procedure, shortened: (§1)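 Peptide MICs were determined by CLSI broth microdilution in cation-adjusted Mueller-Hinton II broth with 0.002% polysorbate 80, inoculum approx. 10^6 CFU/mL. Two-fold serial dilutions of peptide were tested. MIC was the lowest concentration (μg/mL) with no visible growth after 18-20 hours at 35° C.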

[3] = tested on: Escherichia coli ATCC 25922; conditions: ATCC 25922
Procedure, shortened: as §1

[4] = tested on: Acinetobacter baumannii 872842; conditions: 872842
[5] = tested on: Acinetobacter baumannii DSM 30008; conditions: DSM 30008
Procedure, shortened: as §1

[6] = tested on: Klebsiella pneumoniae SSI #3010; conditions: SSI #3010
Procedure, shortened: as §1

[7] = tested on: Klebsiella pneumoniae 968733; conditions: 968733
[8] = tested on: Escherichia coli 926415; conditions: 926415

Compound	Hemolysis at 100 μg/mL [1]; 100 [%]	Pseudomonas aeruginosa ATCC 27853 MIC [2] [mg/L]	Escherichia coli ATCC 25922 MIC [3] [mg/L]	Acinetobacter baumannii 872842 MIC [4] [mg/L]	Acinetobacter baumannii DSM 30008 MIC [5] [mg/L]	Klebsiella pneumoniae SSI #3010 MIC [6] [mg/L]	Klebsiella pneumoniae 968733 MIC [7] [mg/L]	Escherichia coli 926415 MIC [8] [mg/L]	Hemolysis at 100 μg/mL ([1]; 100 μg/mL) [%]
CCCC[C@@H]1NC(=O)[C@@H]2CCCN2C(=O)[C@H]2CCCN2C(=O)[C@H](CO)NC(=O)[C@H](C)NC(=O)[C@H](C(C)(C)C)NC(=O)[C@H](CCN)NC(=O)[C@H](Cc2c[nH]c3ccccc23)NC(=O)[C@@H](NC(C)=O)CCNC(=O)CC[C@@H](C(=O)N[C@@H](CCN)C(=O)N[C@H]2CCNC(=O)[C@H]([C@@H](C)O)NC(=O)[C@H](CCN)NC(=O)[C@H](CCN)NC(=O)[C@H](CC(C)C)NC(=O)[C@@H](Cc3ccccc3)NC(=O)[C@H](CCN)NC2=O)NC(=O)[C@H](CCCN)NC(=O)[C@H](CCN)NC(=O)[C@H](Cc2ccc(O)cc2)NC(=O)[C@H](CO)NC1=O [Ex. 59] (Ac-[Dab]W[Dab][Tle]AS[dP]P[Nle]SY[Dab][Orn]E[Dab][Dab][Dab][dF]L[Dab][Dab]T; lactam 1-14, 16-C)	<1	1	0.25	2	0.5	0.5	2	0.5	–
CCCC[C@@H]1NC(=O)[C@@H]2CCCN2C(=O)[C@H]2CCCN2C(=O)[C@H](CO)NC(=O)[C@H](C)NC(=O)[C@H](C(C)(C)C)NC(=O)[C@H](CCN)NC(=O)[C@H](Cc2c[nH]c3ccccc23)NC(=O)[C@@H](NC(C)=O)CSSC[C@@H](C(=O)N[C@H](CCN)C(=O)N[C@H]2CCNC(=O)[C@H]([C@@H](C)O)NC(=O)[C@H](CCN)NC(=O)[C@H](CCN)NC(=O)[C@H](CC(C)C)NC(=O)[C@@H](Cc3ccccc3)NC(=O)[C@H](CCN)NC2=O)NC(=O)[C@H](CCCN)NC(=O)[C@H](CCN)NC(=O)[C@H](Cc2ccc(O)cc2)NC(=O)[C@H](CO)NC1=O [Ex. 60] (Ac-CW[Dab][Tle]AS[dP]P[Nle]SY[Dab][Orn]C[dDab][Dab][Dab][dF]L[Dab][Dab]T; disulfide 1-14; lactam 16-C)	–	0.5	0.0625	1	1	0.25	1	0.25	<1
CCCC[C@@H]1NC(=O)[C@@H]2CCCN2C(=O)[C@H]2CCCN2C(=O)[C@H](CO)NC(=O)[C@H](C)NC(=O)[C@H](C(C)(C)C)NC(=O)[C@H](CCN)NC(=O)[C@H](Cc2c[nH]c3ccccc23)NC(=O)[C@@H](NC(C)=O)CSSC[C@@H](C(=O)N[C@@H](CCN)C(=O)N[C@@H](CCN)C(=O)N[C@H]2CCNC(=O)[C@H]([C@@H](C)O)NC(=O)[C@H](CCN)NC(=O)[C@H](CCN)NC(=O)[C@H](CC(C)C)NC(=O)[C@@H](Cc3ccccc3)NC(=O)[C@H](CCN)NC2=O)NC(=O)[C@H](CCCN)NC(=O)[C@H](CCN)NC(=O)[C@H](Cc2ccc(O)cc2)NC(=O)[C@H](CO)NC1=O [Ex. 61] (Ac-CW[Dab][Tle]AS[dP]P[Nle]SY[Dab][Orn]C[Dab][Dab][Dab][Dab][dF]L[Dab][Dab]T; disulfide 1-14; lactam 17-C)	–	0.25	0.5	1	1	1	8	2	<1
CCCC[C@@H]1NC(=O)[C@@H]2CCCN2C(=O)[C@H]2CCCN2C(=O)[C@H](CO)NC(=O)[C@H](C)NC(=O)[C@H](C(C)(C)C)NC(=O)[C@H](CCN)NC(=O)[C@H](Cc2c[nH]c3ccccc23)NC(=O)[C@@H](NC(C)=O)CSSC[C@@H](C(=O)N[C@@H](CCN)C(=O)N[C@H](C(=O)N[C@@H](CCN)C(=O)N[C@H]2CCNC(=O)[C@H]([C@@H](C)O)NC(=O)[C@H](CCN)NC(=O)[C@H](CCN)NC(=O)[C@H](CC(C)C)NC(=O)[C@@H](Cc3ccccc3)NC(=O)[C@H](CCN)NC2=O)[C@@H](C)O)NC(=O)[C@H](CCCN)NC(=O)[C@H](CCN)NC(=O)[C@H](Cc2ccc(O)cc2)NC(=O)[C@H](CO)NC1=O [Ex. 62] (Ac-CW[Dab][Tle]AS[dP]P[Nle]SY[Dab][Orn]C[Dab]T[Dab][Dab][Dab][dF]L[Dab][Dab]T; disulfide 1-14; lactam 18-C)	–	0.5	0.25	0.5	0.5	0.5	8	1	1
CCCC[C@@H]1NC(=O)[C@@H]2CCCN2C(=O)[C@H]2CCCN2C(=O)[C@H](CO)NC(=O)[C@H](C)NC(=O)[C@H](C(C)(C)C)NC(=O)[C@H](CCN)NC(=O)[C@H](Cc2c[nH]c3ccccc23)NC(=O)[C@H](NC(C)=O)CSSC[C@@H](C(=O)N[C@@H](CCN)C(=O)N[C@H](C(=O)N[C@@H](CCN)C(=O)N[C@H]2CCNC(=O)[C@H]([C@@H](C)O)NC(=O)[C@H](CCN)NC(=O)[C@H](CCN)NC(=O)[C@H](CC(C)C)NC(=O)[C@@H](Cc3ccccc3)NC(=O)[C@H](CCN)NC2=O)[C@@H](C)O)NC(=O)[C@H](CCCN)NC(=O)[C@H](CCN)NC(=O)[C@H](Cc2ccc(O)cc2)NC(=O)[C@H](CO)NC1=O [Ex. 63] (Ac-[dC]W[Dab][Tle]AS[dP]P[Nle]SY[Dab][Orn]C[Dab]T[Dab][Dab][Dab][dF]L[Dab][Dab]T; disulfide 1-14; lactam 18-C)	–	0.5	0.5	2	2	2	8	3	<1
CCCC[C@@H]1NC(=O)[C@@H]2CCCN2C(=O)[C@H]2CCCN2C(=O)[C@H](CO)NC(=O)[C@H](C)NC(=O)[C@H](C(C)(C)C)NC(=O)[C@H](CCN)NC(=O)[C@H](Cc2c[nH]c3ccccc23)NC(=O)[C@H](CCN)NC(=O)[C@@H](CCN)NC(=O)[C@H](CCC(=O)N[C@H](CCN)C(=O)N[C@H]2CCNC(=O)[C@H]([C@@H](C)O)NC(=O)[C@H](CCN)NC(=O)[C@H](CCN)NC(=O)[C@H](CC(C)C)NC(=O)[C@@H](Cc3ccccc3)NC(=O)[C@H](CCN)NC2=O)NC(=O)[C@H](CCN)NC(=O)[C@H](Cc2ccc(O)cc2)NC(=O)[C@H](CO)NC1=O [Ex. 65] (I: cyclo([Nle]SY[Dab]E[dDab][Dab]W[Dab][Tle]AS[dP]P) / II: [dDab][Dab][Dab][dF]L[Dab][Dab]T; amide I:5-II:N; lactam II:2-II:C)	<1	1	1	4	2	1	2	1	–
CCCC[C@@H]1NC(=O)[C@@H]2CCCN2C(=O)[C@H]2CCCN2C(=O)[C@H](CO)NC(=O)[C@H](C)NC(=O)[C@H](C(C)(C)C)NC(=O)[C@H](CCN)NC(=O)[C@H](Cc2c[nH]c3ccccc23)NC(=O)[C@H](CCN)NC(=O)[C@@H](CCN)NC(=O)[C@H](CC(=O)N[C@H](CCN)C(=O)N[C@H]2CCNC(=O)[C@H]([C@@H](C)O)NC(=O)[C@H](CCN)NC(=O)[C@H](CCN)NC(=O)[C@H](CC(C)C)NC(=O)[C@@H](Cc3ccccc3)NC(=O)[C@H](CCN)NC2=O)NC(=O)[C@H](CCN)NC(=O)[C@H](Cc2ccc(O)cc2)NC(=O)[C@H](CO)NC1=O [Ex. 66] (I: cyclo([Nle]SY[Dab]D[dDab][Dab]W[Dab][Tle]AS[dP]P) / II: [dDab][Dab][Dab][dF]L[Dab][Dab]T; amide I:5-II:N; lactam II:2-II:C)	1	1	0.25	4	1	1	2	2	–
